From patent US20050203063A1, “Proteasome pathway inhibitors and related methods” (priority 2003, published 2005)
Entries after “also recorded” stand apart in the source; their conditions may differ. Read-outs that look alike come from different tables or passages of the source.

Legend:
Format in all cases: biochemical
[1] = system: Cdh1-stimulated cyc-luc proteolysis (APC/C); assay: cyc-luc turnover in interphase Xenopus extracts stimulated with recombinant Cdh1; conditions: 200 μM compound; negative values reflect stimulation of proteolysis
Description: (§1) FIG. 1. Functional classification of inhibitors. Compounds that scored in the initial screen were reacquired as dry powders and retested in Xenopus extracts in 4 assays at 200 μM concentration (32) as described (6). […] (A) Compounds and cyclin-luciferase were added to interphase extracts, which were then induced to enter mitosis by addition of non-degradable cyclin B. Percent inhibition of cyc-luc turnover by each compound is coded according to the grayscale shown at the bottom of the figure; specific values are available in Table 1. (B) Extracts were pre-treated with non-degradable cyclin B to allow entry into mitosis prior to addition of test compound and reporter protein. (C) Interphase extracts were treated by addition of recombinant Cdh1 to activate cyc-luc turnover. (D) Interphase extracts were treated with recombinant axin to induce turnover of β-catenin-luciferase.
(§2) The “Cmpd” column corresponds to the numbers used in FIG. 1; “Class” refers to the class of inhibitor described in FIG. 1 and the text. Columns A-D show percent inhibition in the four assays described in FIG. 1. (A) Interphase extracts (B) Mitotic extracts (C) Interphase extracts stimulated with Cdh1 (D) Degradation of a β-catenin reporter protein in interphase extracts stimulated with recombinant axin. […] “ID#” refers to the identification number of the inhibitor obtained from the NCI (prefaced by NSC) or Chembridge (prefaced by C).
Dry compounds were redissolved at 20 mM concentration in DMSO, or a 50:50 water:DMSO mixture in certain cases. These compounds were then diluted ten-fold in XB and mixed thoroughly. For the assay in FIG. 1A, chilled interphase extract was mixed with cyclin BΔ90 (10 μg/ml) and cyc-luc (0.1 μg/ml) in bulk and then 27 μl of extract was pipetted to each well of a chilled 384-well plate. Three microliters of each compound (diluted in XB) was then added to each well, and then compounds mixed thoroughly. Plates were warmed to room temperature. After 70 minutes, 5 μl aliquots were transferred to another plate, and then 30 μl of luciferin reagent was added to each well and luminescence measured. Percent inhibition was calculated as described above. The reported values represent the average of three independent measurments. For the assay in FIG. 1B, interphase extracts were treated with 10 μg/cyclin B 90 for 50 minutes at room temperature and then chilled on ice. Cyc-luc was then added, and then 27 μl of extract was pipetted to each well of a chilled 384-well plate. Three microliters of each compound (diluted in XB) was then added to each well, and then compounds mixed thoroughly. Plates were warmed to room temperature. After 60 minutes, 5 μl aliquots were transferred to another plate, and then 30 μl of luciferin reagent was added to each well and luminescence measured. For the assay in FIG. 1C, recombinant Cdh1 (0.1 μg/ml) and cyc-luc were added to chilled interphase extracts. Extracts were then pipetted and compounds added as above. Plates were warmed to room temperature and incubated for three hours, following which luminescence was measured as above. For the assay in FIG. 1D, chilled interphase extracts received recombinant axin and beta-catenin-luciferase reporter as described (8). Extracts were aliquoted to chilled plates and compounds distributed as described above. Plates were warmed to room temperature, incubated for three hours, and luminescence measured.

[2] = target: T1, 20S core peptidase activity (Saccharomyces cerevisiae, UniProt P25043+P30656+P38624); assay: 20S core peptidase activity in native gel with fluorescent substrate
T1 construct: made in house; host or cells: S. cerevisiae cells expressing Flag-tagged PRE1
Description: FIG. 6. […] (A) Purified 26S proteasomes were preincubated with test compounds before being resolved on a native gel. Following electrophoresis, the gel was stained with Coomassie Blue. […] Same as (A), except that following electrophoresis, the gel was incubated with fluorescent substrate to determine peptidase activity, which was visualized using a UV transilluminator (9). […] (C) Untreated 26S proteasomes were resolved on a native gel. Following electrophoresis, the gel was incubated with the peptidase substrate in the presence of ubistatin.
26S proteasomes were purified from S. cerevisiae cells expressing a Flag-tagged proteasomal subunit (PRE1) essentially as described (28).

[3] = system: cyclin-luciferase (cyc-luc) turnover, APC/C activation; assay: cyc-luc turnover in interphase Xenopus extracts induced to enter mitosis by non-degradable cyclin B; conditions: 200 μM compound; added to interphase extracts then induced to enter mitosis; average of three measurements
Description: as §1, §2
Extracts were rapidly thawed and diluted to a final concentration of 75% in extract buffer (XB) just prior to assay (XB; 100 mM KCl, 0.1 mM CaCl2, 1 mM MgCl2, 10 mM potassium HEPES, pH 7.7, 50 mM sucrose). Extracts were kept on ice and supplemented with 1 mg/ml bovine ubiquitin (Sigma) unless otherwise stated. Cyc-luc expressed in reticulocyte lysate was diluted 1/200 for most assays. High-throughput screening utilized the bacterially expressed and purified cyclin-luc fusion protein, which was added to extracts at a final concentration of 0.1 μg/ml. To induce entrance into mitosis, cyclin BΔ90 protein was added to a final concentration of 10 μg/ml. For the dose response analysis, inhibitors were purchased from Calbiochem (San Diego, Calif.) and dissolved in DMSO as 10 mM stocks. Cyclin-luciferase and cyclin BΔ90 were mixed with interphase extract and placed on ice. Inhibitors were then added to extracts to yield a final DMSO concentration of 1%. 10 μl aliquots of extract were distributed into 384-well white Cliniplates (Labsystems), and cell cycle progression was initiated by warming the samples to room temperature. After 60 minutes, 30 μl of luciferin reagent (20 mM tricine pH 7.8, 470 μM D-Luciferin [Molecular Probes]), 270 μM Coenzyme A, 0.1 mM EDTA, 33 mM DTT, and 530 μM ATP) was added using a multidrop dispenser (Labsystems). Luminescence was measured on an Analyst plate reader (LJL Biosystems). The values for 3 replicates were averaged. For the dose response analysis, percent inhibition was calculated as 100*(T−M)/(I−M) where T equals the test value for the inhibitor, M equals the value in a mitotic extract lacking inhibitor, and I equals the value in an interphase extract. For certain experiments, methylated ubiquitin was added to interphase extracts at a concentration of 1 mg/ml in the presence or absence of added unmodified ubiquitin (1 mg/ml) used as competitor. Cyclin-luciferase and cyclin BΔ90 were then added. After 60 minutes, the reactions were stopped and analyzed as described above.
Dry compounds were redissolved at 20 mM concentration in DMSO, or a 50:50 water:DMSO mixture in certain cases. These compounds were then diluted ten-fold in XB and mixed thoroughly. For the assay in FIG. 1A, chilled interphase extract was mixed with cyclin BΔ90 (10 μg/ml) and cyc-luc (0.1 μg/ml) in bulk and then 27 μl of extract was pipetted to each well of a chilled 384-well plate.

Row | SMILES | percent inhibition of cyc-luc turnover, (C) Interphase extracts stimulated with Cdh1 [1] [%] | effect on 20S core peptidase activity ([2]; listed as C92) | percent inhibition of cyc-luc turnover, (A) Interphase extracts [3] [%] | effect on 20S core peptidase activity [2]
1 | O=C(Nc1ccc(/C=C/c2ccc(NC(=O)c3cc(S(=O)(=O)O)c4cccnc4c3O)cc2S(=O)(=O)O)c(S(=O)(=O)O)c1)c1cc(S(=O)(=O)O)c2cccnc2c1O [Compound 92] | 65 | does not affect; also recorded: without affecting | 60 | –
2 | O=S(=O)(O)c1ccc2cc3c(cc2c1)NN(c1ccc(/C=C/c2ccc(N4Nc5cc6ccc(S(=O)(=O)O)cc6cc5N4)cc2S(=O)(=O)O)c(S(=O)(=O)O)c1)N3 [Compound 59] | 100 | – | 97 | without affecting
3 | CC(=O)Nc1ccc(SSc2ccc(NC(C)=O)c3cccnc23)c2ncccc12 [Compound 23] | 100 | – | 100 | without effect
